Assay [1] addresses T1, DNA topoisomerase 1 (Homo sapiens) (UniProt P11387).
T1 sequence (whole entry): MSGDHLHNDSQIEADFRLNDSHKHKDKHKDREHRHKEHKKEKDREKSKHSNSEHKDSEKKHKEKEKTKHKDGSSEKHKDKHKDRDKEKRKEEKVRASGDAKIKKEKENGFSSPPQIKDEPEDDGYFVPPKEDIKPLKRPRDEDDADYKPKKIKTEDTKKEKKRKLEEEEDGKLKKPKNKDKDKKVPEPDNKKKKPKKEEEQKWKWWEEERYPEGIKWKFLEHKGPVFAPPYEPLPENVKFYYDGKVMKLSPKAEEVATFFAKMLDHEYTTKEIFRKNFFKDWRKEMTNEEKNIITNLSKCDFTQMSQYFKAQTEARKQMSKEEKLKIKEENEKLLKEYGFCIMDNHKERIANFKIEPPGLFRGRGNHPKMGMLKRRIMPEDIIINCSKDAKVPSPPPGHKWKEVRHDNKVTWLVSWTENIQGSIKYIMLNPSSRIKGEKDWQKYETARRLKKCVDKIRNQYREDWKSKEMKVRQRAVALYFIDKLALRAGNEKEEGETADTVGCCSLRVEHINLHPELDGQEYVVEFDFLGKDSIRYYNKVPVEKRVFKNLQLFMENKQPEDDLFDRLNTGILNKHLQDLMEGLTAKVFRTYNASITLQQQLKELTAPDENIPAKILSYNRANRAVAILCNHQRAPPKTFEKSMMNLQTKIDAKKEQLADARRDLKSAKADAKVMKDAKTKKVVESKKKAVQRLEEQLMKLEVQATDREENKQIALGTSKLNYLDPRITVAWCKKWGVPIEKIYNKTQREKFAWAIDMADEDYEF
The assay is described as follows: Inhibition of human recombinant DNA topoisomerase 1 assessed as reduction in relaxation of supercoiled pHOT DNA at 25 to 50 uM incubated for 45 mins by ethidium bromide staining based gel electrophoresis.

Assay [2] can be described thus: Cytotoxicity against human PC3 cells assessed as inhibition of cell growth after 48 hrs by sulforhodamine B assay. Conditions: PC-3, 48 h. It counts as functional, cell-based. In general terms: In SRB staining, fixed cells bind dye roughly in proportion to their protein.

Structures are written as SMILES. Activity calls are given as the source filed them. No cut-off for these calls is given here. A value given as a limit tells only on which side of the number the result lay.

`O=C1c2ccccc2C(=O)c2cc3oc(=S)[nH]c3cc21`: the inhibition entry in assay [1] was “inactive”. Moreover, the IC50 in assay [2] was greater than 30 µM.
The matching figures for `O=C1c2ccccc2C(=O)c2cc3oc(SCCCN4CCCCC4)nc3cc21`: “Active” and 12.2 µM.

As usually defined, the IC50 is the midpoint of a concentration-inhibition curve.

The record behind these values is ChEMBL document CHEMBL3352029, “Ring fusion strategy for the synthesis of anthra[2,3-d]oxazole-2-thione-5,10-dione homologues as DNA topoisomerase inhibitors and as antitumor agents” (Eur J Med Chem, 2014).
